We go through 25 compounds from patent US10287301B2 (Achillion Pharmaceuticals, Inc., priority 2015, dated 2019).

Sequence of Human Factor D (P00746 26-253): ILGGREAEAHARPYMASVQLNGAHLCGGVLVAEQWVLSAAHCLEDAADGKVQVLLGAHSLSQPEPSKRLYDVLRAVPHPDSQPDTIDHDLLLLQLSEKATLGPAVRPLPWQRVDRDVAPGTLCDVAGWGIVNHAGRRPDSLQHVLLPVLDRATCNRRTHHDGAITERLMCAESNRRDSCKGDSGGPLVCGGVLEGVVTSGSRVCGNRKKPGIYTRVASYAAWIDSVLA

The first assay addresses Human Factor D (Homo sapiens (Human), UniProt P00746). The assay can be described thus: Human Factor D Assay. The class given is biochemical.
Conditions: not given
A digest of the protocol: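 Thioesterase activity monitored with Z-L-Lys-SBzl plus Ellman's reagent (DTNB), each 100 μM final, after 5 min room-temperature compound preincubation of 80 nM human serum Factor D in pH 7.5 Tris (50 mM)/1M NaCl.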
In turn, `Cc1ncc(-c2ccc3c(c2)c([C@H](C)O)nn3CC(=O)N2C[C@H](F)C[C@H]2C(=O)Nc2cccc(Br)n2)cn1` [Compound 425, (2S,4R)—N-(6-Bromopyridin-2-yl)-4-fluoro-1-(2-(3-((S)-1-hydroxyethyl)-5-(2-methylpyrimidin-5-yl)-1H-indazol-1-yl)acetyl)pyrrolidine-2-carboxamide] gave an IC50 of 1000 to 10000 nM.

Consider `Cc1ncc(-c2ccc3c(c2)c([C@@H](C)O)nn3CC(=O)N2C[C@H](F)C[C@H]2C(=O)Nc2cccc(Br)n2)cn1` [Compound 426, (2S,4R)—N-(6-Bromopyridin-2-yl)-4-fluoro-1-(2-(3-((R)-1-hydroxyethyl)-5-(2-methylpyrimidin-5-yl)-1H-indazol-1-yl)acetyl)pyrrolidine-2-carboxamide], for which the IC50 fell in the range of 1000 to 10000 nM.

Still in this assay, the particulars now being: Table 3; Human Factor D 80 nM, substrate Z-L-Lys-SBzl; read-out: IC50 (Stars).
For the compound `CC(=O)c1nn(CC(=O)N2C[C@](C)(F)C[C@H]2C(=O)Nc2cccc(Br)n2)c2ccc(-c3cnc(C)nc3)cc12` [Compound 418, (2S,4R)-1-(2-(3-Acetyl-5-(2-methylpyrimidin-5-yl)-1H-indazol-1-yl)acetyl)-N-(6-bromopyridin-2-yl)-4-fluoro-4-methylpyrrolidine-2-carboxamide], the IC50 is under 1000 nM.

Consider `COC[C@@]1(F)C[C@@H](C(=O)Nc2cccc(Br)n2)N(C(=O)Cn2nc(C(C)=O)c3cc(-c4cnc(C)nc4)ccc32)C1` [Compound 419, (2S,4R)-1-(2-(3-Acetyl-5-(2-methylpyrimidin-5-yl)-1H-indazol-1-yl)acetyl)-N-(6-bromopyridin-2-yl)-4-fluoro-4-(methoxymethyl)pyrrolidine-2-carboxamide], for which the IC50 is under 1000 nM.

Consider `CC(=O)c1nn(CC(=O)N2C[C@H](F)C[C@H]2C(=O)Nc2nn(CC(F)(F)F)cc2Br)c2ccc(-c3cnc(C)nc3)cc12` [Compound 420, (2S,4R)-1-(2-(3-Acetyl-5-(2-methylpyrimidin-5-yl)-1H-indazol-1-yl)acetyl)-N-(4-bromo-1-(2,2,2-trifluoroethyl)-1H-pyrazol-3-yl)-4-fluoropyrrolidine-2-carboxamide], for which the IC50 is under 1000 nM.

Take `CNC(=O)c1nn(CC(=O)N2C[C@H](F)C[C@H]2C(=O)Nc2cccc(Br)n2)c2ccc(-c3cnc(C)nc3)cc12` [Compound 424, 1-(2-((2S,4R)-2-((6-Bromopyridin-2-yl)carbamoyl)-4-fluoropyrrolidin-1-yl)-2-oxoethyl)-N-methyl-5-(2-methylpyrimidin-5-yl)-1H-indazole-3-carboxamide]: the IC50 was under 1000 nM.

Take `CC(=O)c1nn(CC(=O)N2C[C@H](F)[C@@H](N)[C@H]2C(=O)Nc2cccc(Br)n2)c2ccc(-c3cnc(C)nc3)cc12` [Compound 427, (2S,3S,4S)-1-(2-(3-Acetyl-5-(2-methylpyrimidin-5-yl)-1H-indazol-1-yl)acetyl)-3-amino-N-(6-bromopyridin-2-yl)-4-fluoropyrrolidine-2-carboxamide]: the IC50 was under 1000 nM.

On to `CC(=O)c1nn(CC(=O)N2C[C@@H](N)[C@H](F)[C@H]2C(=O)Nc2cccc(Br)n2)c2ccc(-c3cnc(C)nc3)cc12` [Compound 428, (2R,3S,4R)-1-(2-(3-Acetyl-5-(2-methylpyrimidin-5-yl)-1H-indazol-1-yl)acetyl)-4-amino-N-(6-bromopyridin-2-yl)-3-fluoropyrrolidine-2-carboxamide], for which the IC50 is over 10000 nM.

Regarding `CC(=O)c1nn(CC(=O)N2C[C@H](F)C[C@H]2C(=O)Nc2cc(C)n(CC(F)(F)F)n2)c2ccc(-c3cnc(C)nc3)cc12` [Compound 429, (2S,4R)-1-(2-(3-Acetyl-5-(2-methylpyrimidin-5-yl)-1H-indazol-1-yl)acetyl)-N-(5-methyl-1-(2,2,2-trifluoroethyl)-1H-pyrazol-3-yl)-4-fluoropyrrolidine-2-carboxamide], the IC50 was under 1000 nM.

As for `CC(=O)c1nn(CC(=O)N2C[C@H](F)C[C@H]2C(=O)Nc2nn(CC(F)(F)F)cc2Cl)c2ccc(-c3cnc(C)nc3)cc12` [Compound 430, (2S,4R)-1-(2-(3-Acetyl-5-(2-methylpyrimidin-5-yl)-1H-indazol-1-yl)acetyl)-N-(4-chloro-1-(2,2,2-trifluoroethyl)-1H-pyrazol-3-yl)-4-fluoropyrrolidine-2-carboxamide], the IC50 was under 1000 nM.

For the compound `COc1cc(Br)nc(NC(=O)[C@@H]2C[C@@H](F)CN2C(=O)Cn2nc(C(C)=O)c3cc(-c4cnc(OC)nc4)ccc32)c1` [Compound 431, (2S,4R)-1-(2-(3-Acetyl-5-(2-methoxypyrimidin-5-yl)-1H-indazol-1-yl)acetyl)-N-(6-bromo-4-methoxypyridin-2-yl)-4-fluoropyrrolidine-2-carboxamide], the IC50 was under 1000 nM.

With `COc1cc(Br)nc(NC(=O)[C@@H]2C[C@@H](F)CN2C(=O)Cn2nc(C(C)=O)c3cc(-c4cnc(N)nc4)ccc32)c1` [Compound 432, (2S,4R)-1-(2-(3-Acetyl-5-(2-aminopyrimidin-5-yl)-1H-indazol-1-yl)acetyl)-N-(6-bromo-4-methoxypyridin-2-yl)-4-fluoropyrrolidine-2-carboxamide], the IC50 was under 1000 nM.

In the case of `COc1cc(Br)nc(NC(=O)[C@@H]2C[C@H]3C[C@H]3N2C(=O)Cn2nc(C(C)=O)c3cc(-c4cnc(OC)nc4)ccc32)c1` [Compound 433, (1R,3S,5R)-2-(2-(3-Acetyl-5-(2-methoxypyrimidin-5-yl)-1H-indazol-1-yl)acetyl)-N-(6-bromo-4-methoxypyridin-2-yl)-2-azabicyclo[3.1.0]hexane-3-carboxamide], the IC50 was under 1000 nM.

`COc1cc(Br)nc(NC(=O)[C@@H]2C[C@H]3C[C@H]3N2C(=O)Cn2nc(C(C)=O)c3cc(-c4cnc(N)nc4)ccc32)c1` [Compound 434, (1R,3S,5R)-2-(2-(3-Acetyl-5-(2-aminopyrimidin-5-yl)-1H-indazol-1-yl)acetyl)-N-(6-bromo-4-methoxypyridin-2-yl)-2-azabicyclo[3.1.0]hexane-3-carboxamide]: the IC50 is under 1000 nM.

For the compound `CC(=O)c1nn(CC(=O)N2C[C@H](F)C[C@H]2C(=O)Nc2nc(Br)ccc2C)c2ccc(-c3cnc(N)nc3)cc12` [Compound 435, (2S,4R)-1-(2-(3-Acetyl-5-(2-aminopyrimidin-5-yl)-1H-indazol-1-yl)acetyl)-N-(6-bromo-3-methylpyridin-2-yl)-4-fluoropyrrolidine-2-carboxamide], the IC50 is under 1000 nM.

With `COc1ncc(-c2ccc3c(c2)c(C(C)=O)nn3CC(=O)N2C[C@H](F)C[C@H]2C(=O)Nc2nc(Br)ccc2C)cn1` [Compound 436, (2S,4R)-1-(2-(3-Acetyl-5-(2-methoxypyrimidin-5-yl)-1H-indazol-1-yl)acetyl)-N-(6-bromo-3-methylpyridin-2-yl)-4-fluoropyrrolidine-2-carboxamide], the IC50 was under 1000 nM.

For the compound `CC(=O)c1nn(CC(=O)N2C[C@H](F)C[C@H]2C(=O)Nc2cc(F)ncc2Br)c2ccc(-c3cnc(C)nc3)cc12` [Compound 438, (2S,4R)-1-(2-(3-Acetyl-5-(2-methylpyrimidin-5-yl)-1H-indazol-1-yl)acetyl)-N-(5-bromo-2-fluoropyridin-4-yl)-4-fluoropyrrolidine-2-carboxamide], the IC50 was under 1000 nM.

As for `CC(=O)c1nn(CC(=O)N2C[C@H](F)C[C@H]2C(=O)Nc2nn(C)c3ncccc23)c2ccc(-c3cnc(C)nc3)cc12` [Compound 439, (2S,4R)-1-(2-(3-Acetyl-5-(2-methylpyrimidin-5-yl)-1H-indazol-1-yl)acetyl)-4-fluoro-N-(1-methyl-1H-pyrazolo[3,4-b]pyridin-3-yl)pyrrolidine-2-carboxamide], the IC50 was under 1000 nM.

As to `Cc1ncc(-c2ccc3c(c2)c(C(=O)CO)nn3CC(=O)N2C[C@H](F)C[C@H]2C(=O)Nc2cccc(Br)n2)cn1` [Compound 440, (2S,4R)—N-(6-bromopyridin-2-yl)-4-fluoro-1-(2-(3-(2-hydroxyacetyl)-5-(2-methylpyrimidin-5-yl)-1H-indazol-1-yl)acetyl)pyrrolidine-2-carboxamide], the IC50 is under 1000 nM.

Take `CC(=O)c1cn(CC(=O)N2C[C@H](F)C[C@H]2C(=O)NCc2ccccc2)c2ccc(-c3cnc(C)nc3)cc12` [Compound 442, (2S,4R)-1-(2-(3-Acetyl-5-(2-methylpyrimidin-5-yl)-1H-indol-1-yl)acetyl)-N-benzyl-4-fluoropyrrolidine-2-carboxamide]: the IC50 was under 1000 nM.

For `CC(=O)c1cn(CC(=O)N2C[C@H](F)C[C@H]2C(=O)NCCc2ccccc2)c2ccc(-c3cnc(C)nc3)cc12` [Compound 443, (2S,4R)-1-(2-(3-Acetyl-5-(2-methylpyrimidin-5-yl)-1H-indol-1-yl)acetyl)-4-fluoro-N-phenethylpyrrolidine-2-carboxamide], the IC50 was under 1000 nM.

As for `CC(=O)c1cn(CC(=O)N2C[C@H](F)C[C@H]2C(=O)NCCCc2ccccc2)c2ccc(-c3cnc(C)nc3)cc12` [Compound 444, (2S,4R)-1-(2-(3-Acetyl-5-(2-methylpyrimidin-5-yl)-1H-indol-1-yl)acetyl)-4-fluoro-N-(3-phenylpropyl)pyrrolidine-2-carboxamide], the IC50 is under 1000 nM.

As to `COc1ncc(-c2ccc3c(c2)c(C(C)=O)nn3CC(=O)N2[C@@H]3C[C@@H]3C[C@H]2C(=O)Nc2nc(Br)ccc2C)cn1` [Compound 445, (1R,3S,5R)-2-(2-(3-Acetyl-5-(2-methoxypyrimidin-5-yl)-1H-indazol-1-yl)acetyl)-N-(6-bromo-3-methylpyridin-2-yl)-2-azabicyclo[3.1.0]hexane-3-carboxamide], the IC50 was under 1000 nM.

`CC(=O)c1nn(CC(=O)N2[C@@H]3C[C@@H]3C[C@H]2C(=O)Nc2nc(Br)ccc2C)c2ccc(-c3cnc(N)nc3)cc12` [Compound 446, (1R,3S,5R)-2-(2-(3-Acetyl-5-(2-aminopyrimidin-5-yl)-1H-indazol-1-yl)acetyl)-N-(6-bromo-3-methylpyridin-2-yl)-2-azabicyclo[3.1.0]hexane-3-carboxamide]: the IC50 is under 1000 nM.

With `CC(=O)c1nn(CC(=O)N2[C@@H]3C[C@@H]3C[C@H]2C(=O)Nc2ccc(F)c(Br)n2)c2ccc(-c3cnc(C)nc3)cc12` [Compound 447, (1R,3S,5R)-2-(2-(3-Acetyl-5-(2-methylpyrimidin-5-yl)-1H-indazol-1-yl)acetyl)-N-(6-bromo-5-fluoropyridin-2-yl)-2-azabicyclo[3.1.0]hexane-3-carboxamide], the IC50 was under 1000 nM.

What is called IC50 is the concentration at which inhibition is half-maximal.
